Experimental data reported in patent publication US8143290B2, “Chemical compounds 572” (AstraZeneca AB, priority 2006, dated 2012).

Target: T1, recombinant human GR (Homo sapiens, UniProt P04150)
T1 construct: purchased Panvera/Invitrogen P2812 (kit P2893)
T1 sequence (P04150 1-777): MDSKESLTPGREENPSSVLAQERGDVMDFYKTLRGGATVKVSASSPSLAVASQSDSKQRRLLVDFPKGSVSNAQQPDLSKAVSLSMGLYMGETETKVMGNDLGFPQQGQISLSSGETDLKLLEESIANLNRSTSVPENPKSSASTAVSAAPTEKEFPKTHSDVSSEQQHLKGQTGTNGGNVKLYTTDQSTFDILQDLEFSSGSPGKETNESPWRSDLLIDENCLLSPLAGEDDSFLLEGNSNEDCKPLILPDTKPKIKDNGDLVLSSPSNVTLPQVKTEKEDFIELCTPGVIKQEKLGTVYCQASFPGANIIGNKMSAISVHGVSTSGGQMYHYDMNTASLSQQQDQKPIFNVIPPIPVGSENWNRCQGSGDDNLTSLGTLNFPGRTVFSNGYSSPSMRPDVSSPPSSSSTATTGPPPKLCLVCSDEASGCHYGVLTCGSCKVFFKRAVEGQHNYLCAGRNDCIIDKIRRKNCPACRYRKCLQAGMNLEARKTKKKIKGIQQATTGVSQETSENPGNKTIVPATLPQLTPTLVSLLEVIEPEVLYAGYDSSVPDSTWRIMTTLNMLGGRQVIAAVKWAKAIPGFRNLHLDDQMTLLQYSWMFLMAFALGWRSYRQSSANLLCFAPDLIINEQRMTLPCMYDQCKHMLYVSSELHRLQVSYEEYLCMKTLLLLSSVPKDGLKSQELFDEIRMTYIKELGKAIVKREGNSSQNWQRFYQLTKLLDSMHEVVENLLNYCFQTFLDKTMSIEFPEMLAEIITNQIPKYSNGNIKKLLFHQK
Assay: Human Glucocorticoid Receptor (GR) Assay, fluorescence polarization
Type: binding
Settings: GS Red tracer, incubated 2 h at r.t., XLfit model 205, read-out: GRhuFL_FP_v2 Mean IC50
Experimental: Human Glucocorticoid Receptor (GR) Assay
The assay is based on a commercial kit from Panvera/Invitrogen (Part number P2893). The assay technology is fluorescence polarization. […] The GR and Stabilizing Peptide reagents are stored at −70° C. while the GS Red is stored at −20° C. Also included in the kit are 1M DTT (Panvera, Part number P2325, stored at −20° C.) and GR Screening buffer 10× (Panvera, Part number P2814, stored at −70° C. initially but once thawed stored at r.t.). Avoid repeated freeze/thaws for all reagents. The GR Screening buffer 10× comprises 100 mM potassium phosphate, 200 mM sodium molybdate, 1 mM EDTA and 20% DMSO.
0% control was 100% DMSO and 100% control was […] Dexamethasone. Background solution (8 μL; assay buffer 10×, Stabilizing Peptide, DTT and ice cold MQ water) was added to the background wells. GS Red solution (7 μL; assay buffer 10×, Stabilizing Peptide, DTT, GS Red and ice cold water) was added to all wells except background wells. GR solution (7 μL; assay buffer 10×, Stabilizing Peptide, DTT, GR and ice cold water) was added to all wells. The plate was sealed and incubated in a dark at r.t. for 2 h.

Row | Compound | IC50
1 | COc1cccc([C@@H](Oc2ccc3c(cnn3-c3ccc(F)cc3)c2)[C@H](C)NC(=O)C(C)C)c1 [Example 55, N-[(1R,2S)-1-[1-(4-fluorophenyl)indazol-5-yl]oxy-1-(3-methoxyphenyl)propan-2-yl]-2-methyl-propanamide] | 3.3 nM
2 | COc1cccc([C@@H](Oc2ccc3c(cnn3-c3ccc(F)cc3)c2)[C@H](C)NC(=O)C2CCCC2)c1 [Example 56, N-[(1R,2S)-1-[1-(4-fluorophenyl)indazol-5-yl]oxy-1-(3-methoxyphenyl)propan-2-yl]cyclopentanecarboxamide] | 4.4 nM
3 | COc1cccc([C@@H](Oc2ccc3c(cnn3-c3ccc(F)cc3)c2)[C@H](C)NC(=O)[C@@H](C)O)c1 [Example 57, (2R)-N-[(1R,2S)-1-[1-(4-fluorophenyl)indazol-5-yl]oxy-1-(3-methoxyphenyl)propan-2-yl]-2-hydroxy-propanamide] | 4.1 nM
4 | COc1cccc([C@@H](Oc2ccc3c(cnn3-c3ccc(F)cc3)c2)[C@H](C)NC(=O)[C@H](C)O)c1 [Example 58, (2S)-N-[(1R,2S)-1-[1-(4-fluorophenyl)indazol-5-yl]oxy-1-(3-methoxyphenyl)propan-2-yl]-2-hydroxy-propanamide] | 2.7 nM
5 | COCC(=O)N[C@@H](C)[C@H](Oc1ccc2c(cnn2-c2ccc(F)cc2)c1)c1ccc(C(F)(F)F)cc1 [Example 59, N-[(1R,2S)-1-[1-(4-fluorophenyl)indazol-5-yl]oxy-1-[4-(trifluoromethyl)phenyl]propan-2-yl]-2-methoxy-acetamide] | 3.3 nM
6 | C[C@H](NC(=O)CO)[C@H](Oc1ccc2c(cnn2-c2ccc(F)cc2)c1)c1ccc(C(F)(F)F)cc1 [Example 60, N-[(1R,2S)-1-[1-(4-fluorophenyl)indazol-5-yl]oxy-1-[4-(trifluoromethyl)phenyl]propan-2-yl]-2-hydroxy-acetamide] | 3.3 nM
7 | CCC(=O)N[C@@H](C)[C@H](Oc1ccc2c(cnn2-c2ccc(F)cc2)c1)c1ccc(C(F)(F)F)cc1 [Example 61, N-[(1R,2S)-1-[1-(4-fluorophenyl)indazol-5-yl]oxy-1-[4-(trifluoromethyl)phenyl]propan-2-yl]propanamide] | 3.3 nM
8 | Cc1cc2c(cnn2-c2ccc(F)cc2)cc1O[C@H](c1ccccc1)[C@H](C)NC(=O)C(F)(F)F [Example 62, 2,2,2-Trifluoro-N-[(1R,2S)-1-[1-(4-fluorophenyl)-6-methyl-indazol-5-yl]oxy-1-phenyl-propan-2-yl]acetamide] | 3.5 nM
9 | Cc1cc2c(cnn2-c2ccc(F)cc2)cc1O[C@H](c1ccccc1)[C@H](C)NC(=O)C(C)(C)C [Example 63, N-[(1R,2S)-1-[1-(4-Fluorophenyl)-6-methyl-indazol-5-yl]oxy-1-phenyl-propan-2-yl]-2,2-dimethyl-propanamide] | 4.4 nM
10 | Cc1cc2c(cnn2-c2ccc(F)cc2)cc1O[C@H](c1ccccc1)[C@H](C)NC(=O)CO [Example 64, N-[(1R,2S)-1-[1-(4-Fluorophenyl)-6-methyl-indazol-5-yl]oxy-1-phenyl-propan-2-yl]-2-hydroxy-acetamide] | 3.9 nM
11 | COc1cccc([C@@H](Oc2cc3cnn(-c4ccc(F)cc4)c3cc2C)[C@H](C)NC(=O)C(F)(F)F)c1 [Example 65, 2,2,2-Trifluoro-N-[(1R,2S)-1-[1-(4-fluorophenyl)-6-methyl-indazol-5-yl]oxy-1-(3-methoxyphenyl)propan-2-yl]acetamide] | 3.8 nM
12 | COc1cccc([C@@H](Oc2cc3cnn(-c4ccc(F)cc4)c3cc2C)[C@H](C)NC(=O)C(C)(C)C)c1 [Example 66, N-[(1R,2S)-1-[1-(4-Fluorophenyl)-6-methyl-indazol-5-yl]oxy-1-(3-methoxyphenyl)propan-2-yl]-2,2-dimethyl-propanamide] | 4.2 nM
13 | COc1cccc([C@@H](Oc2cc3cnn(-c4ccc(F)cc4)c3cc2C)[C@H](C)NC(=O)CO)c1 [Example 67, N-[(1R,2S)-1-[1-(4-Fluorophenyl)-6-methyl-indazol-5-yl]oxy-1-(3-methoxyphenyl)propan-2-yl]-2-hydroxy-acetamide] | 4.1 nM
14 | COCCOCC(=O)N[C@@H](C)[C@H](Oc1ccc2c(cnn2-c2ccc(F)cc2)c1)c1cccc(OC)c1 [Example 71, N-[(1R,2S)-1-[1-(4-Fluorophenyl)indazol-5-yl]oxy-1-(3-methoxyphenyl)propan-2-yl]-2-(2-methoxyethoxy)acetamide] | 4.6 nM
15 | C[C@H](NC(=O)C(F)(F)F)[C@@H](Cc1ccccc1)Oc1ccc2c(cnn2-c2ccc(F)cc2)c1 [Example 72, 2,2,2-Trifluoro-N-[(2S,3R)-3-[1-(4-fluorophenyl)indazol-5-yl]oxy-4-phenyl-butan-2-yl]acetamide] | 3.7 nM
16 | C[C@H](NC(=O)C(C)(C)C)[C@@H](Cc1ccccc1)Oc1ccc2c(cnn2-c2ccc(F)cc2)c1 [Example 73, N-[(2S,3R)-3-[1-(4-Fluorophenyl)indazol-5-yl]oxy-4-phenyl-butan-2-yl]-2,2-dimethyl-propanamide] | 5.1 nM
17 | C[C@H](NC(=O)CO)[C@@H](Cc1ccccc1)Oc1ccc2c(cnn2-c2ccc(F)cc2)c1 [Example 74, N-[(2S,3R)-3-[1-(4-Fluorophenyl)indazol-5-yl]oxy-4-phenyl-butan-2-yl]-2-hydroxy-acetamide] | 3.7 nM
18 | COc1cccc([C@@H](Oc2ccc3c(cnn3-c3ccc(F)cc3)c2)[C@H](C)NC(=O)C(=O)OC(C)(C)C)c1 [Example 75, tert-Butyl [(1R,2S)-1-[1-(4-fluorophenyl)indazol-5-yl]oxy-1-(3-methoxyphenyl)propan-2-yl]carbamoylformate] | 5.3 nM
19 | COc1cccc([C@@H](Oc2ccc3c(cnn3-c3ccc(F)cc3)c2)[C@H](C)NC(=O)C(N)=O)c1 [Example 76, N-[(1R,2S)-1-[1-(4-Fluorophenyl)indazol-5-yl]oxy-1-(3-methoxyphenyl)propan-2-yl]oxamide] | 2.2 nM
20 | COc1cccc([C@@H](Oc2ccc3c(cnn3-c3ccc(F)cc3)c2)[C@H](C)NC(=O)C(=O)OC(C)C)c1 [Example 77, Propan-2-yl [(1R,2S)-1-[1-(4-fluorophenyl)indazol-5-yl]oxy-1-(3-methoxyphenyl)propan-2-yl]carbamoylformate] | 2.6 nM
21 | CCOC(=O)C(=O)N[C@@H](C)[C@H](Oc1ccc2c(cnn2-c2ccc(F)cc2)c1)c1cccc(OC)c1 [Example 78, Ethyl [(1R,2S)-1-[1-(4-fluorophenyl)indazol-5-yl]oxy-1-(3-methoxyphenyl)propan-2-yl]carbamoylformate] | 3.2 nM
22 | CNC(=O)C(=O)N[C@@H](C)[C@H](Oc1ccc2c(cnn2-c2ccc(F)cc2)c1)c1cccc(OC)c1 [Example 79, N-[(1R,2S)-1-[1-(4-Fluorophenyl)indazol-5-yl]oxy-1-(3-methoxyphenyl)propan-2-yl]-N′-methyl-oxamide] | 2.6 nM
23 | COc1cccc([C@@H](Oc2ccc3c(cnn3-c3ccc(F)cc3)c2)[C@H](C)NC(=O)C(=O)N(C)C)c1 [Example 80, N-[(1R,2S)-1-[1-(4-Fluorophenyl)indazol-5-yl]oxy-1-(3-methoxyphenyl)propan-2-yl]-N′,N′-dimethyl-oxamide] | 3.7 nM
24 | COc1cccc([C@@H](Oc2ccc3c(cnn3-c3ccc(F)cc3)c2)[C@H](C)NC(=O)C(=O)NC(C)(C)C)c1 [Example 82, N-[(1R,2S)-1-[1-(4-Fluorophenyl)indazol-5-yl]oxy-1-(3-methoxyphenyl)propan-2-yl]-N′-tert-butyl-oxamide] | 5.3 nM
